For six compounds, IC50 and GI50 results are on record in patent publication US12281121B2, “N-containing heteroaryl derivative and pharmaceutical composition comprising same as active ingredient for prevention or treatment of cancer” (VORONOI Inc., priority 2019, dated 2025).

One test has as its target T1, RET (WT) (Homo sapiens, UniProt P07949).
T1 construct: human RET (658-end, SIGNALCHEM); purchased SIGNALCHEM
T1 sequence (P07949 658-1114 limits assumed): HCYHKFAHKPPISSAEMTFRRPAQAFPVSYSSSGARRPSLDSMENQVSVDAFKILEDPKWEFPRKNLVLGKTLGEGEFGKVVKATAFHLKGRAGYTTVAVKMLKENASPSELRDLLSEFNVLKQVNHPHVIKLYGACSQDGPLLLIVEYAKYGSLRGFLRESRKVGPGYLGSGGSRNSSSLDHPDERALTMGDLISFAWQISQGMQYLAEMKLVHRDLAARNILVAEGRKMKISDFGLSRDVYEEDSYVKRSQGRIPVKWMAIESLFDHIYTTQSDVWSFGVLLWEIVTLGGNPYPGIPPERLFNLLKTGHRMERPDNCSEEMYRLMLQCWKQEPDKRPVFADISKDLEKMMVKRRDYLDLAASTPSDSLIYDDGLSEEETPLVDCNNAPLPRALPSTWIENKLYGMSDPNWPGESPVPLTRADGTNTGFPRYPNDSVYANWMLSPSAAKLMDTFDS
Kind of test: RET enzyme inhibitory ability, ADP-Glo kinase assay. It is filed as biochemical. Particulars: ATP 10 μM, 25° C., 1 hour. The protocol: The Example compound was reacted with a purified human RET (658-end, SIGNALCHEM) enzyme to evaluate the enzyme inhibitory ability by the following method. As a reaction buffer, a composition of 40 mM Tris-HCl pH 7.4, 20 mM MgCl2, 0.5 mg/mL BSA, and 50 μM DTT was used, and all experimental materials were reacted on the reaction buffer. After the human RET (658-end, 0.8 ng) enzyme was reacted with purified ATP (10 μM) and a specific substrate solution at 25° C. for 1 hour during the experiment, the enzyme activity was confirmed using in vitro ADP-Glo™ kinase assay (Promega). Luminescence was measured by reacting the enzyme activity reaction solution, the ADP-Glo reaction solution, and the enzyme activity detection solution at a ratio of 2:2:1. The degree of inhibition of enzyme activity according to the treatment concentration of each compound was calculated based on the […] of the enzyme activity of a solvent control group in which a compound was not treated, and in this case, the concentration of each compound which suppresses the […] enzyme activity by 50% was determined as an IC50 (nM) value. The IC50 (nM) of each compound was determined by 3 datasets and obtained using Prism (version 7.01, GraphPad) software.
In the enzyme assay column, RET (WT) is a non-mutated form, RET (V804M) is a mutated form in which the V amino acid at position 804 of the RET is substituted with M, and CCDC6-RET is a form in which the RET (WT) gene and CCDC6 gene are fused.

In a further test the test system is Ba/F3 (naive) cells. Kind of test: Cell proliferation inhibition, CellTiter-Glo. It is filed as cell-based. As to conditions: Mus musculus, BaF3; Ba/F3 not transduced, 72 hours. The protocol:
(§1) Among lung cancer cell lines, which express RET fusion genes, LC-2/ad cells were cultured after adding 10% FBS (HyClone) to RPMI:F12 (1:1) (Invitrogen), and F-12 (Invitrogen) supplemented with 10% FBS was used for TT cells. RPMI-1640 supplemented with 10% FBS and 5 ng/ml IL-3 (R&D Systems) was used for Ba/F3 cells. Transduced Ba/F3 cells were cultured by adding 1 ug/ml puromycin (Invitrogen) to the same medium. 24 hours before cells were treated with the compound, 3000 to 5000 cells were aliquoted into each well of a white clear bottom 96 well plate (Corning). The compound was diluted in DMSO (3-fold dilution, a total of 12 concentrations) and the compound was injected by 0.5 μl such that the final concentration was 0.3 nM to 50 μM. For the measurement of living cells, 72 hours after the compound treatment, the cells were stored at room temperature for 10 minutes using a CellTiter-Glo luminescent cell-viability agent (Promega), and then the luminescence intensity was measured using a reader (SynergyNeo, Biotek). Each experiment was repeated in triplicate. The result value was calculated by the cell growth ratio (%) compared to the control. A graph was drawn using the GraphPad Prism version 5.0 program, and a GI50 (nM) value was calculated.
(§2) In the cell assay column, LC-2/ad (with CCDC6-RET gene) is a lung cancer cell line, a TT cell line ([…]) is a thyroid cancer cell line, Ba/F3 CCDC6-RET (WT), Ba/F3 KIF5B-RET (WT), and Ba/F3 KIF5B-RET (V804M) are cells in which disease-related traits (CCDC6-RET, KIF5B-RET, and KIF5B-RET (V804M)) are introduced into Ba/F3 cells, and Ba/F3 (naive) is a cell which is not transduced.

Test [1] deals with Ba/F3 CCDC6-RET (WT) cells. Kind of test: Cell proliferation inhibition, CellTiter-Glo. It is filed as cell-based. As to conditions: BaF3/CCDC6-RET, 72 hours. How it is done: as §1, §2
The subject of test [2] is Ba/F3 KIF5B-RET (V804M) cells. Kind of test: Cell proliferation inhibition, CellTiter-Glo. It is filed as cell-based. As to conditions: Mus musculus, BaF3, 72 hours. The protocol: as §1, §2
The test system of test [3] is Ba/F3 KIF5B-RET (WT) cells. Kind of test: Cell proliferation inhibition, CellTiter-Glo. It is filed as cell-based. As to conditions: Mus musculus, BaF3, 72 hours. The protocol:
as §1, §2

In the next test the test system is TT cells. Kind of test: Cell proliferation inhibition, CellTiter-Glo. It is filed as cell-based. Particulars: Homo sapiens; TT thyroid cancer cell line, 72 hours. How it is done: as §1, §2

A value given as a limit tells only on which side of the number the result lay.

For the compound `COc1ccc(CN2C3CC2CN(c2ccc(-c4nc(Nc5cc(C)[nH]n5)c5sccc5n4)cn2)C3)cn1` [Example 2, 2-(6-(6-((6-methoxypyridin-3-yl)methyl)-3,6-diazabicyclo [3.1.1]heptan-3-yl)pyridin-3-yl)-N-(5-methyl-1H-pyrazol-3-yl)thieno[3,2-d]pyrimidin-4-amine], inhibition at RET (WT) was half-maximal at 12 nM (IC50). Besides, the concentration for 50% growth inhibition (GI50) in the test with Ba/F3 (naive) cells worked out at 4380 nM; in test [1] it was 49 nM; in test [2], 14 nM; in test [3], 11 nM; in the test with TT cells, 48 nM.

As for `COc1ccc(CN2C3CC2CN(c2ccc(-c4nc(Nc5cc(C(F)(F)F)[nH]n5)c5occc5n4)cn2)C3)cn1` [Example 4, 2-(6-(6-((6-methoxypyridin-3-yl)methyl)-3,6-diazabicyclo [3.1.1]heptan-3-yl)pyridin-3-yl)-N-(5-(trifluoromethyl)-1H-pyrazol-3-yl)furo[3,2-d]pyrimidin-4-amine], the IC50 on RET (WT) was above 15000 nM. The concentration for 50% growth inhibition (GI50) (in the test with Ba/F3 (naive) cells; in test [2]; in the test with TT cells) was above 15000 nM throughout.

For the compound `COc1ccc(CN2C3CC2CN(c2ccc(-c4nc5c(c(Nc6cc(C)[nH]n6)n4)CCC5)cn2)C3)cn1` [Example 7, 2-(6-(6-((6-methoxypyridin-3-yl)methyl)-3,6-diazabicyclo [3.1.1]heptan-3-yl)pyridin-3-yl)-N-(5-methyl-1H-pyrazol-3-yl)-6,7-dihydro-5H-cyclopenta[d]py-rimidin-4-amine], on RET (WT), the half-maximal inhibitory concentration (IC50) came out at 10 nM. Moreover, the 50% growth inhibitory concentration (GI50) with Ba/F3 (naive) cells worked out at 6070 nM; in test [1] it was 45 nM; in test [2], 7 nM; in test [3], 15 nM; in the test with TT cells, 41 nM.

`COc1ccc(CN2C[C@H]3C[C@@H]2CN3c2ccc(-c3nc(Nc4cc(C)[nH]n4)c4ccccc4n3)cn2)cn1` [Example 34, 2-(6-((1R,4R)-5-((6-methoxy-pyridin-3-yl)methyl)-2,5-diazabicyclo [2.2.1]heptan-2-yl)pyridin-3-yl)-N-(5-methyl-1H-pyrazol-3-yl)quinazolin-4-amine]: the half-inhibitory concentration (IC50) against RET (WT) was found to be 16 nM. For the same compound, the GI50 with Ba/F3 (naive) cells turned out to be 2590 nM; in test [1], 65 nM; in test [2], 20 nM; in test [3], 19 nM.

In the case of `COc1ccc(CN2CCN(c3ccc(-c4nc(Nc5cc(C)[nH]n5)c5ccccc5n4)cn3)C[C@H]2C)cn1` [Example 36, (R)-2-(6-(4-((6-methoxypyridin-3-yl)methyl)-3-methylpiperazin-1-yl)pyridin-3-yl)-N-(5-methyl-1H-pyrazol-3-yl)quinazolin-4-amine], it took 59 nM to reach half-maximal inhibition against RET (WT) (IC50). Besides, the GI50 in the test on Ba/F3 (naive) cells was 4800 nM; in test [1] it was 259 nM; in test [2], 32 nM; in test [3] it was 63 nM.

Take `COc1ccc(CN2CCN(c3ccc(-c4nc(Nc5cc(C)[nH]n5)c5ccccc5n4)cn3)CC23CC3)cn1` [Example 37, 2-(6-(4-((6-methoxypyridin-3-yl)methyl)-4,7-diazaspiro[2.5]oc-tan-7-yl)pyridin-3-yl)-N-(5-meth-yl-1H-pyrazol-3-yl)quinazolin-4-amine]: the IC50 at RET (WT) is 219 nM. For the same compound, the GI50 with Ba/F3 (naive) cells was found to be 4650 nM; in test [1], 305 nM; in test [2], 50 nM; in test [3] it was 107 nM.
